According to PubChem BioAssay (NCI):
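Dose response: 5 concentrations. Exposure: 48 h. Format: 96-well plates. Endpoint: linear interpolation; highest concentration if not reached. Here, GI50 denotes the concentration required for 50% inhibition of growth. TGI is the concentration that stops growth completely.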

Tests used:
Experiment in all cases: inhibition of tumour cell growth, NCI panel, 48 h
[1] = test system: LXFL 529 NSCLC
[2] = test system: OVCAR-4 ovarian
[3] = test system: IGROV1 ovarian
[4] = test system: SNB-19 CNS
[5] = test system: HOP-62 NSCLC
[6] = test system: SNB-78 CNS
[7] = test system: M19-MEL melanoma
[8] = test system: CAKI-1 renal
[9] = test system: SF-268 CNS
[10] = test system: EKVX NSCLC
[11] = test system: DMS 114 small cell lung
[12] = test system: NCI/ADR-RES ovarian

CC(=O)NC1C(OCc2ccccc2)OC(COC(=O)CCCCCNc2ccc([N+](=O)[O-])c3[nH]c4ccc(O)cc4c(=O)c23)C(O)C1OC(C)C(=O)N[C@@H](C)C(=O)N[C@H](CCC(=O)OCc1ccccc1)C(N)=O (stereo partly drawn)
TGI [1]: 3.85 µM | TGI [2]: 15.9 µM | TGI [3]: 34 µM | TGI [4]: 19.6 µM | TGI [5]: 22.7 µM | TGI [6]: 16.3 µM | TGI [7]: 33.3 µM | TGI [8]: 4.21 µM | TGI [9]: 9.41 µM | TGI [10]: 17.3 µM

C/C(=N\NS(=O)(=O)c1ccc(C)cc1)c1c(O)cc(C)oc1=O
TGI [1]: > 100 µM | TGI [2]: > 100 µM | TGI [3]: > 100 µM | TGI [4]: > 100 µM | TGI [5]: > 100 µM | TGI [6]: > 100 µM | TGI [7]: > 100 µM | TGI [8]: > 100 µM | TGI [9]: > 100 µM | TGI [10]: > 100 µM

COc1cc2ccc(/C(C)=N/OC(C)=O)cc2cc1OC
TGI [11]: > 100 µM | TGI [1]: > 100 µM | TGI [2]: > 100 µM | TGI [3]: > 100 µM | TGI [4]: > 100 µM | TGI [6]: > 100 µM | TGI [7]: > 100 µM | TGI [9]: > 100 µM | TGI [10]: > 100 µM

C=CCCC(C)N(C(=O)OC(C)(C)C)S(=O)(=O)c1ccc(C)cc1 (stereo not drawn)
TGI [1]: > 100 µM | TGI [2]: > 100 µM | TGI [3]: > 100 µM | TGI [4]: > 100 µM | TGI [5]: > 100 µM | TGI [6]: > 100 µM | TGI [8]: > 100 µM | TGI [9]: > 100 µM

CCCC1C(=O)C(CC)Cc2c(OC)ccc(OC)c21 (stereo not drawn)
TGI [1]: > 100 µM | TGI [2]: > 100 µM | TGI [3]: > 100 µM | TGI [4]: > 100 µM | TGI [5]: > 100 µM | TGI [6]: > 100 µM | TGI [7]: > 100 µM | TGI [8]: > 100 µM | TGI [9]: > 100 µM | TGI [10]: > 100 µM

C[C@]12CC(C#N)C(=O)C(O)=C1CC[C@@H]1C2CC[C@@]2(C)C1CC[C@@H]2O (stereo partly drawn)
TGI [11]: > 100 µM | TGI [1]: > 100 µM | TGI [2]: > 100 µM | TGI [3]: 63.7 µM | TGI [4]: > 100 µM | TGI [5]: > 100 µM | TGI [6]: > 100 µM | TGI [9]: > 100 µM | TGI [10]: > 100 µM

O=C(O)CN(c1ccccc1)S(=O)(=O)c1ccc(Cl)cc1
TGI [1]: > 100 µM | TGI [2]: > 100 µM | TGI [3]: > 100 µM | TGI [4]: > 100 µM | TGI [7]: > 100 µM | TGI [8]: > 100 µM | TGI [9]: > 100 µM | TGI [10]: > 100 µM

S=P(c1ccccc1)(c1ccccc1)C1(C2(P(=S)(c3ccccc3)c3ccccc3)CC2)CC1
TGI [11]: > 100 µM | TGI [1]: > 100 µM | TGI [2]: > 100 µM | TGI [3]: > 100 µM | TGI [4]: > 100 µM | TGI [5]: > 100 µM | TGI [6]: > 100 µM | TGI [7]: > 100 µM | TGI [9]: > 100 µM | TGI [10]: > 100 µM

Cc1[nH]c2ccccc2c1C1CC(=O)NC1=O (stereo not drawn)
TGI [11]: > 100 µM | TGI [2]: > 100 µM | TGI [3]: > 100 µM | TGI [5]: > 100 µM | TGI [6]: > 100 µM | TGI [7]: > 100 µM | TGI [8]: > 100 µM | TGI [10]: > 100 µM

O=C1CC2C(=O)C1C(C(=O)O)C2C(=O)O (stereo not drawn)
TGI [2]: > 100 µM | TGI [3]: > 100 µM | TGI [4]: > 100 µM | TGI [5]: > 100 µM | TGI [8]: > 100 µM | TGI [9]: > 100 µM | TGI [12]: > 100 µM | TGI [10]: > 100 µM

CC1=C2C(=O)C(C)(C)C=C2C(=O)[C@](C)(O)C12CC2
TGI [1]: > 1 µM | TGI [2]: > 1 µM | TGI [3]: > 1 µM | TGI [4]: > 1 µM | TGI [5]: > 1 µM | TGI [6]: > 1 µM | TGI [7]: > 1 µM | TGI [8]: > 1 µM | TGI [9]: > 1 µM | TGI [10]: > 1 µM

C=C1SC(=Nc2ccccc2Cl)N(C(=O)c2sc3ccccc3c2Cl)C1(C)C
GI50 [2]: 5540 nM | TGI [2]: > 100 µM | GI50 [3]: 6.2 µM | TGI [3]: > 100 µM | GI50 [4]: 3.64 µM | TGI [4]: > 100 µM | GI50 [5]: 10.5 µM | TGI [5]: > 51.1 µM | GI50 [8]: 2730 nM | TGI [8]: 19.4 µM | GI50 [9]: 12.9 µM | TGI [9]: > 100 µM | GI50 [12]: 3.71 µM | TGI [12]: > 53 µM | GI50 [10]: 2380 nM | TGI [10]: 18.2 µM

c1ccc2c(c1)nnn2CNc1ccc(N2CCOCC2)cc1
TGI [11]: > 100 µM | TGI [1]: > 100 µM | TGI [2]: > 100 µM | TGI [3]: > 100 µM | TGI [4]: > 100 µM | TGI [5]: > 100 µM | TGI [6]: > 100 µM | TGI [7]: > 100 µM | TGI [9]: > 100 µM | TGI [10]: > 100 µM

O=C1c2cccc3cc([N+](=O)[O-])cc(c23)C(=O)N1CCN1CCCC1
GI50 [2]: 1480 nM | TGI [2]: 11.7 µM | GI50 [3]: 0.276 µM | TGI [3]: 5.16 µM | GI50 [4]: 0.35 µM | TGI [4]: 2.42 µM | GI50 [5]: 0.312 µM | TGI [5]: 1.7 µM | GI50 [8]: 216 nM | TGI [8]: 0.892 µM | GI50 [9]: 0.601 µM | TGI [9]: 4.27 µM | GI50 [12]: 0.871 µM | GI50 [10]: 1470 nM | TGI [10]: 5.7 µM

Cc1ccc(C(=O)CCC2C(=O)CC(C)(C)CC2=O)cc1
TGI [2]: > 100 µM | TGI [3]: > 100 µM | TGI [4]: > 100 µM | TGI [5]: > 100 µM | TGI [8]: 32 µM | TGI [9]: > 100 µM | TGI [12]: > 100 µM | TGI [10]: > 100 µM

COc1ccc(-c2nc(N)c3ncn(C4OC(CO)C(O)C4O)c3n2)cc1 (stereo not drawn)
TGI [2]: > 100 µM | TGI [3]: > 100 µM | TGI [4]: > 100 µM | TGI [5]: > 100 µM | TGI [8]: > 100 µM | TGI [9]: > 100 µM | TGI [12]: > 100 µM | TGI [10]: > 100 µM

CCCCNC(=O)Oc1ccc2c(=O)c3sc4c(=O)c5ccccc5c(=O)c4c3c(=O)c2c1
GI50 [2]: 977 nM | TGI [2]: 2.15 µM | GI50 [3]: 2.23 µM | TGI [3]: 6.72 µM | GI50 [4]: 0.287 µM | TGI [4]: 1.05 µM | GI50 [5]: 0.144 µM | TGI [5]: 0.277 µM | GI50 [8]: 1240 nM | TGI [8]: 2.86 µM | GI50 [9]: 1.1 µM | TGI [9]: 3.56 µM | GI50 [12]: 1.58 µM | TGI [12]: 8.43 µM | GI50 [10]: 1380 nM | TGI [10]: 3.57 µM

CN(C)c1ccc2cc(-c3cc4c(oc3=O)-c3ccccc3OC4O)c(=O)oc2c1 (stereo not drawn)
GI50 [2]: 550 nM | TGI [2]: > 25 µM | GI50 [3]: 5.07 µM | TGI [3]: 12 µM | GI50 [4]: 3.56 µM | TGI [4]: 12.2 µM | GI50 [5]: 3.88 µM | TGI [5]: 11.6 µM | GI50 [8]: 7070 nM | TGI [8]: > 25 µM | GI50 [9]: 6.26 µM | TGI [9]: 18.7 µM | GI50 [12]: 3.6 µM | TGI [12]: 17.1 µM | GI50 [10]: 2180 nM | TGI [10]: > 25 µM

CC1OC(O[C@H]2/C=C/C=C/C=C/C=C/C=C/C=C/C=C/[C@H](C)[C@@H](O)[C@@H](C)[C@H](C)OC(=O)C[C@H](O)C[C@H](O)CC[C@@H](O)[C@H](O)C[C@H](O)C[C@]3(O)C[C@H](O)[C@@H](C(=O)O)[C@H](C2)O3)C(O)C(N)C1O (stereo partly drawn)
TGI [2]: 51.2 µM | TGI [3]: 20.7 µM | GI50 [4]: 37.8 µM | TGI [4]: 50.2 µM | GI50 [5]: 20.5 µM | TGI [5]: 42.2 µM | GI50 [8]: 12700 nM | TGI [8]: 41.7 µM | GI50 [9]: 25.6 µM | TGI [9]: 60.7 µM | GI50 [12]: 24.9 µM | TGI [12]: 56.5 µM | GI50 [10]: 11100 nM | TGI [10]: 27.8 µM
